From article PMC11917140, “Mining the UniProtKB/Swiss‐Prot database for antimicrobial peptides” (Protein Science : A Publication of the Protein Society, 2025)
Where two headings read alike, the source gives them in different places. Residues, ends and D or L forms follow the SMILES beside them. No end group written: not given here.

Tests used:
[1] = test system: Staphylococcus aureus ATCC 29213; assay type: cell-based
Method: (§1) To measure the antimicrobial activity of our selected putative AMPs in vitro, broth microdilution assays were conducted to determine the minimum inhibitory and minimum bactericidal concentrations (MICs and MBCs, respectively), as outlined by the Clinical and Laboratory Standards Institute [CLSI] ([2015]). The adaptations for testing cationic AMPs, as described previously (Wiegand et al., [2008]), were incorporated. The selected peptides were tested against laboratory isolates of E. coli 25922 and S. aureus 29213, which were purchased from the American Type Culture Collection (ATCC; Manassas, VA, USA). Bacteria from frozen stocks were streaked onto nonselective Columbia blood agar with 5% sheep blood (Oxoid) and incubated for 18–24 h at 37°C. To ensure the uniform colony health before the assay, 2–4 colonies were streaked onto a new agar plate and incubated for another 18–24 h at 37°C on the next day. To create a standardized bacterial inoculum, isolated colonies were suspended in Mueller‐Hinton Broth (MHB; Sigma‐Aldrich, St. Louis, MO, USA). The suspension was adjusted to an optical density of 0.08–0.1 at 600 nm, which corresponds to a 0.5 McFarland standard of approximately 1–2 × 10^8 colony‐forming units (CFU)/mL. The inoculum was then diluted 1:250, resulting in a final concentration of 5 ± 3 × 10^5 CFU/mL. The target bacterial density was confirmed by measuring the total viability counts from the final tested inoculum.
(§2) The selected putative AMPs were purchased from and synthesized by GenScript (Piscataway, NJ, USA) in lyophilized format. The peptides were stored at −20°C and were suspended in sterile ultrapure water prior to testing. A two‐fold serial dilution of 1280 to 2.5 μg/mL was prepared in sterile 96‐well polypropylene microtiter plates (Greiner Bio‐One #650261, Kremsmünster, Austria). Then, 100 μL of the standardized bacterial inoculum was added to each well, resulting in a final AMP testing range of 128 to 0.25 μg/mL. The MIC values were determined as the lowest peptide concentration in which no visible bacterial growth was observed after a 20–24 h incubation at 37°C. To determine the MBC values, well contents of the MIC and the two adjacent wells containing the two‐ and four‐fold higher peptide concentrations were plated onto nonselective nutrient agar. The concentration in which 99.9% of the inoculum was killed after an incubation for 24 h at 37°C was reported as the MBC.
(§3) In our tests, we used Ranatuerin‐4—a known AMP from the American bullfrog (Goraya et al., [1998]), and an in‐house peptide [TKPKG]3 (OT15) as the positive and negative control peptides, respectively. We note that OT15 was truncated and derived from a negative control peptide [TKPKG]4 (OT20), not antimicrobial but sharing similar characteristics to AMPs, used in previous studies (Horváti et al., [2017]).

[2] = test system: Escherichia coli ATCC 25922; assay type: cell-based
Method: as §1, §2, §3

[3] = broth microdilution (CLSI, adapted for cationic AMPs), MHB, 5 ± 3 × 10^5 CFU/mL, 20–24 h at 37°C, tested 0.25–128 μg/mL, range from three independent experiments in duplicate, one maximum and one minimum data point dropped
[4] = concentration killing 99.9% of inoculum, plated on nutrient agar, 24 h at 37°C, range from three independent experiments in duplicate, one maximum and one minimum data point dropped

Compound	MIC, S. aureus ATCC 29213 ([1]; ATCC 29213)	MBC, S. aureus ATCC 29213 ([1]; ATCC 29213, 24 h)	MIC, E. coli ATCC 25922 ([2]; ATCC 25922)	MBC, E. coli ATCC 25922 ([2]; ATCC 25922, 24 h)	MIC, S. aureus ATCC 29213 [1, 3]	MBC, S. aureus ATCC 29213 [1, 4]	MIC, E. coli ATCC 25922 [2, 3]	MBC, E. coli ATCC 25922 [2, 4]
CSCC[C@H](NC(=O)[C@H](C)NC(=O)[C@H](CCC(=O)O)NC(=O)[C@H](Cc1c[nH]c2ccccc12)NC(=O)[C@H](CCCNC(=N)N)NC(=O)[C@@H](N)[C@@H](C)O)C(=O)N[C@@H](CCCCN)C(=O)N[C@@H](C)C(=O)N[C@@H](CCCCN)C(=O)N[C@@H](C)C(=O)N[C@H](C(=O)N[C@@H](CCC(=O)O)C(=O)N[C@@H](CC(C)C)C(=O)N[C@@H](CCCNC(=N)N)C(=O)N[C@H](C(=O)N[C@@H](CS)C(=O)N[C@@H](CS)C(=O)N[C@@H](C)C(=O)N[C@@H](CCCNC(=N)N)C(=O)N[C@@H](CCCNC(=N)N)C(=O)N[C@@H](CCCCN)C(=O)N[C@@H](CCCNC(=N)N)C(=O)O)C(C)C)[C@@H](C)O [HoSa2] (H-TRWEAMKAKATELRVCCARRKR-OH; N-terminus and C-terminus assumed)	> 128 µg/mL	> 128 µg/mL	> 128 µg/mL	> 128 µg/mL				
CSCC[C@H](NC(=O)CNC(=O)[C@H](CO)NC(=O)[C@H](CCCNC(=N)N)NC(=O)[C@@H](NC(=O)[C@H](CO)NC(=O)[C@H](Cc1ccccc1)NC(=O)CNC(=O)[C@H](Cc1ccccc1)NC(=O)[C@@H](NC(=O)[C@H](CO)NC(=O)[C@H](CCCNC(=N)N)NC(=O)[C@H](CCCNC(=N)N)NC(=O)[C@@H](NC(=O)[C@H](C)NC(=O)[C@H](CS)NC(=O)[C@H](Cc1ccccc1)NC(=O)[C@H](CCC(N)=O)NC(=O)[C@H](C)NC(=O)[C@H](CCCNC(=N)N)NC(=O)CNC(=O)[C@H](C)NC(=O)[C@H](Cc1ccc(O)cc1)NC(=O)[C@H](C)NC(=O)[C@H](Cc1c[nH]c2ccccc12)NC(=O)[C@H](CCC(N)=O)NC(=O)[C@H](CO)NC(=O)[C@H](Cc1c[nH]c2ccccc12)NC(=O)[C@@H](N)CCCNC(=N)N)C(C)C)C(C)C)C(C)C)C(=O)N[C@H](C(=O)N[C@@H](CS)C(=O)N[C@@H](CCCNC(=N)N)C(=O)N1CCC[C@H]1C(=O)N[C@@H](CCCNC(=N)N)C(=O)N[C@@H](CCCNC(=N)N)C(=O)O)C(C)C [MuMu1] (H-RWSQWAYAGRAQFCAVRRSVFGFSVRSGMVCRPRR-OH; N-terminus and C-terminus assumed)	> 128 µg/mL	> 128 µg/mL	≥ 128 µg/mL					
CC[C@H](C)[C@H](NC(=O)[C@H](CC(C)C)NC(=O)[C@H](CC(=O)O)NC(=O)[C@H](CCCNC(=N)N)NC(=O)[C@H](CO)NC(=O)[C@H](CS)NC(=O)[C@H](Cc1c[nH]cn1)NC(=O)[C@H](Cc1c[nH]cn1)NC(=O)[C@H](Cc1c[nH]cn1)NC(=O)[C@H](Cc1ccc(O)cc1)NC(=O)[C@H](CC(C)C)NC(=O)[C@H](Cc1ccccc1)NC(=O)[C@H](CC(N)=O)NC(=O)[C@H](CC(C)C)NC(=O)[C@H](CC(C)C)NC(=O)[C@H](Cc1ccc(O)cc1)NC(=O)[C@H](CO)NC(=O)[C@H](CS)NC(=O)[C@@H](NC(=O)[C@H](Cc1c[nH]c2ccccc12)NC(=O)[C@H](Cc1ccccc1)NC(=O)[C@@H](NC(=O)[C@H](Cc1c[nH]c2ccccc12)NC(=O)[C@H](CC(N)=O)NC(=O)[C@H](CCCCN)NC(=O)[C@H](C)NC(=O)[C@H](Cc1c[nH]c2ccccc12)NC(=O)[C@H](CC(=O)O)NC(=O)[C@H](Cc1c[nH]c2ccccc12)NC(=O)[C@H](C)N)C(C)C)[C@@H](C)O)C(=O)N[C@@H](CCCNC(=N)N)C(=O)N[C@@H](CCCNC(=N)N)C(=O)O [ScPo1] (H-AWDWAKNWVFWTCSYLLNFLYHHHCSRDLIRR-OH; N-terminus and C-terminus assumed)	> 128 µg/mL	> 128 µg/mL	> 128 µg/mL	> 128 µg/mL				
ARLDVAAEFRKKWNKWALSRGKR [SuSc1]					> 128 µg/mL	> 128 µg/mL	128 µg/mL	
DLWFGLKTEGELAFVKRTIFDVIYKSAKRKR [ArTh10]	> 128 µg/mL	> 128 µg/mL	> 128 µg/mL	> 128 µg/mL				
FLEKPPGPLGARPLGGK [MuMu4, putative AMP mined from UniProt Q9Z0L3, Mus musculus]					> 128 µg/mL	> 128 µg/mL	> 128 µg/mL	> 128 µg/mL
FMRFGKRFMRFGRFGKSAEVENNIQIAAKQS [LySt2]	> 128 µg/mL	> 128 µg/mL	> 128 µg/mL	> 128 µg/mL				
FWNLNKKKKFFYKTVKNSIGQVILRDMSNN [DiDi2]	> 128 µg/mL	> 128 µg/mL	16 µg/mL	16 µg/mL				
GLIKRIIRQKR [GaGa2]	> 128 µg/mL		128 µg/mL					
GLQKLINKIKSQMSRFSTKTNKICGP [HoSa1]	128 µg/mL		16 µg/mL	16 to 32 µg/mL				
GRGRPKGRGRGRPRGRPRGSKR [GoGo1]					> 128 µg/mL	> 128 µg/mL	64 µg/mL	
GVLKKVIRHKR [HoSa6, putative AMP mined from UniProt P24821, Q29116; Homo sapiens, Sus scrofa]					> 128 µg/mL	> 128 µg/mL	> 128 µg/mL	> 128 µg/mL
QFFLPMILRLYVSRLFISKL [CaGl2, putative AMP mined from UniProt P05040, Candida glabrata]					> 128 µg/mL	> 128 µg/mL	> 128 µg/mL	> 128 µg/mL
QVWKRR [HoSa8, putative AMP mined from UniProt Q9BXP8, Homo sapiens]					> 128 µg/mL	> 128 µg/mL	> 128 µg/mL	> 128 µg/mL
RFGRFLRKIRRFRPKVTITIQGSARFG [Chicken CATH-2, reference compound]	32 µg/mL	32 µg/mL	8 to 16 µg/mL	8 to 16 µg/mL				
RIRGHTIKG [DrMe6, putative AMP mined from UniProt O46201, Drosophila melanogaster]					> 128 µg/mL	> 128 µg/mL	> 128 µg/mL	> 128 µg/mL
RSIIRNGIRTLTWRKETKRKKK [ArTh11]			64 to 128 µg/mL		> 128 µg/mL	> 128 µg/mL	64 to 128 µg/mL	
RVKRFWPLVPVAINTVAAGINLYKAIRRK [Chicken CATH-3, reference compound]	2 µg/mL	2 to 4 µg/mL	2 to 4 µg/mL	2 to 4 µg/mL				
VLKKSEIRIDFISRTILHI [MoIn1, putative AMP mined from UniProt Q09WW0, Morus indica]					> 128 µg/mL	> 128 µg/mL		
